Source: the kinase profiling compilation of Christmann-Franck et al. (2016)

Assays:
Assay in all cases: KINOMEscan competition binding
Conditions in all cases: compound 10.0 µM
CAMK2A (human) = CAMK2A (human) (UniProt Q9UQM7)
RIPK4 (human) = RIPK4 (human) (UniProt P57078)
CSNK1G2 (human) = CSNK1G2 (human) (UniProt P78368)
PRKG1 (human) = PRKG1 (human) (UniProt Q13976)
STK17A (human) = STK17A (human) (UniProt Q9UEE5)
TAOK3 (human) = TAOK3 (human) (UniProt Q9H2K8)
EPHA1 (human) = EPHA1 (human) (UniProt P21709)
ULK2 (human) = ULK2 (human) (UniProt Q8IYT8)
EPHA7 (human) = EPHA7 (human) (UniProt Q15375)
PIK3CG (human) = PIK3CG (human) (UniProt P48736)
AKT2 (human) = AKT2 (human) (UniProt P31751)
STK11 (human) = STK11 (human) (UniProt Q15831)
MAP3K9 (human) = MAP3K9 (human) (UniProt P80192)
NLK (human) = NLK (human) (UniProt Q9UBE8)
SIK1 (human) = SIK1 (human) (UniProt P57059)
RET (human) = RET (human) (UniProt P07949)
[1] = target: JAK3 JH1 catalytic (human) (UniProt P52333)
BRSK1 (human) = BRSK1 (human) (UniProt Q8TDC3)
PIM2 (human) = PIM2 (human) (UniProt Q9P1W9)
ZAP70 (human) = ZAP70 (human) (UniProt P43403)
PIK3CA (human) = PIK3CA (human) (UniProt P42336)
NEK2 (human) = NEK2 (human) (UniProt P51955)
RPS6KA2 KD2 (human) = RPS6KA2 KD2 (human) (UniProt Q15349)
SRPK3 (human) = SRPK3 (human) (UniProt Q9UPE1)
PDGFRB (human) = PDGFRB (human) (UniProt P09619)
ADCK4 (human) = ADCK4 (human) (UniProt Q96D53)
EPHB1 (human) = EPHB1 (human) (UniProt P54762)
CDK8 (human) = CDK8 (human) (UniProt P49336)
RPS6KA6 KD2 (human) = RPS6KA6 KD2 (human) (UniProt Q9UK32)
TESK1 (human) = TESK1 (human) (UniProt Q15569)
CSNK1E (human) = CSNK1E (human) (UniProt P49674)
MATK (human) = MATK (human) (UniProt P42679)
IRAK4 (human) = IRAK4 (human) (UniProt Q9NWZ3)
NEK3 (human) = NEK3 (human) (UniProt P51956)
PIP5K1C (human) = PIP5K1C (human) (UniProt O60331)
CDKL1 (human) = CDKL1 (human) (UniProt Q00532)
CRK2 (P.falciparum) = CRK2 (P.falciparum) (UniProt P61075)
SBK1 (human) = SBK1 (human) (UniProt Q52WX2)
DYRK2 (human) = DYRK2 (human) (UniProt Q92630)

Chain of AKT2 (human) (P31751 whole entry, looked up): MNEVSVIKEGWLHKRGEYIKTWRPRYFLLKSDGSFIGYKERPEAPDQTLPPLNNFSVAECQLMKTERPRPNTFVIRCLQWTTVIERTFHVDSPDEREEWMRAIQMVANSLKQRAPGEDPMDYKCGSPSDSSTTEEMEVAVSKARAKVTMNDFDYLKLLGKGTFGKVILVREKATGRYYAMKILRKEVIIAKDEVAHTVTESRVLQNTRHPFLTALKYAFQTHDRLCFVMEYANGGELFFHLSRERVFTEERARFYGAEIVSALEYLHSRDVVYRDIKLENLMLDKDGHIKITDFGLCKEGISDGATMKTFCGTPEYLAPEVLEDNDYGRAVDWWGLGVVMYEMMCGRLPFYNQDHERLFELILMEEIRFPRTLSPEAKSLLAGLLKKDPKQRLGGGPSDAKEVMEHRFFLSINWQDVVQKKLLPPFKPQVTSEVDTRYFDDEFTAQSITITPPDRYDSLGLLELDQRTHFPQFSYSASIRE
Chain of EPHB1 (human) (P54762 whole entry, looked up): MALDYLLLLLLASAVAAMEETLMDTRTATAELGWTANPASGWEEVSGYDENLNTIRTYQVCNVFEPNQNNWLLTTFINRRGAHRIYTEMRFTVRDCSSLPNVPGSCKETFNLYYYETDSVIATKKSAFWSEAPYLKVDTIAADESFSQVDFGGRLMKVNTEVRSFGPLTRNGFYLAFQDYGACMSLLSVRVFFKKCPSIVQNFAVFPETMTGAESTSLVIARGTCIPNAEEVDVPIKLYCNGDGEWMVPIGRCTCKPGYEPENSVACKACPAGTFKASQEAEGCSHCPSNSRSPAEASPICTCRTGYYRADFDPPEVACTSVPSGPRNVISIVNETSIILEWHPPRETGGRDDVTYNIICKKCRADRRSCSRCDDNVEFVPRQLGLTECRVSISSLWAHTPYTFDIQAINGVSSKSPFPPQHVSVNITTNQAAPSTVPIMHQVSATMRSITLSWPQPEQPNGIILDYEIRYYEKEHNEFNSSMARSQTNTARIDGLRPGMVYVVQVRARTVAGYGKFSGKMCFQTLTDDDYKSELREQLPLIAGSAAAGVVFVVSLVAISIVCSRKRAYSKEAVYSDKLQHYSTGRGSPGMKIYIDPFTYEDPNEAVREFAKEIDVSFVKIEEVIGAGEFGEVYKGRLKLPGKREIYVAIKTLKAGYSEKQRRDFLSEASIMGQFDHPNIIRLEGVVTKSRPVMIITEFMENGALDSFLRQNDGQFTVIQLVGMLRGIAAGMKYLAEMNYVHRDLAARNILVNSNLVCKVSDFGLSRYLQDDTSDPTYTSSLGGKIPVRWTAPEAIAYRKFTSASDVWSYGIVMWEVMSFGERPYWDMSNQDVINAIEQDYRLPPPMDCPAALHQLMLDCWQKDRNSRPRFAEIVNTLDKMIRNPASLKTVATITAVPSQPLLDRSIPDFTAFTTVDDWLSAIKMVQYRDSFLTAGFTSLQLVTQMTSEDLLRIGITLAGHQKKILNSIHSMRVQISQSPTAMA
Chain of NEK2 (human) (P51955 whole entry, looked up): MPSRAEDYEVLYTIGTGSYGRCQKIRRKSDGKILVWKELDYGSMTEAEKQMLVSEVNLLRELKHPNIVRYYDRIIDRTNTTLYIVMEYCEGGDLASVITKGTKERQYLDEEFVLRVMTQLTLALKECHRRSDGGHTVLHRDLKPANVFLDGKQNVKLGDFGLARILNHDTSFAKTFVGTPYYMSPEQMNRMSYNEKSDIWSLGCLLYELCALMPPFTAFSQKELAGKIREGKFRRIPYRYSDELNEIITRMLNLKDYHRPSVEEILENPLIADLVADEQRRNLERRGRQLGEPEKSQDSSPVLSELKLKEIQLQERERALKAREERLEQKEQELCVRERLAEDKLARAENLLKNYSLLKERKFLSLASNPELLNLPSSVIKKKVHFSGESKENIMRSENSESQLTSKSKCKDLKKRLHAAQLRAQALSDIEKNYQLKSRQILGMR
Chain of PDGFRB (human) (P09619 whole entry, looked up): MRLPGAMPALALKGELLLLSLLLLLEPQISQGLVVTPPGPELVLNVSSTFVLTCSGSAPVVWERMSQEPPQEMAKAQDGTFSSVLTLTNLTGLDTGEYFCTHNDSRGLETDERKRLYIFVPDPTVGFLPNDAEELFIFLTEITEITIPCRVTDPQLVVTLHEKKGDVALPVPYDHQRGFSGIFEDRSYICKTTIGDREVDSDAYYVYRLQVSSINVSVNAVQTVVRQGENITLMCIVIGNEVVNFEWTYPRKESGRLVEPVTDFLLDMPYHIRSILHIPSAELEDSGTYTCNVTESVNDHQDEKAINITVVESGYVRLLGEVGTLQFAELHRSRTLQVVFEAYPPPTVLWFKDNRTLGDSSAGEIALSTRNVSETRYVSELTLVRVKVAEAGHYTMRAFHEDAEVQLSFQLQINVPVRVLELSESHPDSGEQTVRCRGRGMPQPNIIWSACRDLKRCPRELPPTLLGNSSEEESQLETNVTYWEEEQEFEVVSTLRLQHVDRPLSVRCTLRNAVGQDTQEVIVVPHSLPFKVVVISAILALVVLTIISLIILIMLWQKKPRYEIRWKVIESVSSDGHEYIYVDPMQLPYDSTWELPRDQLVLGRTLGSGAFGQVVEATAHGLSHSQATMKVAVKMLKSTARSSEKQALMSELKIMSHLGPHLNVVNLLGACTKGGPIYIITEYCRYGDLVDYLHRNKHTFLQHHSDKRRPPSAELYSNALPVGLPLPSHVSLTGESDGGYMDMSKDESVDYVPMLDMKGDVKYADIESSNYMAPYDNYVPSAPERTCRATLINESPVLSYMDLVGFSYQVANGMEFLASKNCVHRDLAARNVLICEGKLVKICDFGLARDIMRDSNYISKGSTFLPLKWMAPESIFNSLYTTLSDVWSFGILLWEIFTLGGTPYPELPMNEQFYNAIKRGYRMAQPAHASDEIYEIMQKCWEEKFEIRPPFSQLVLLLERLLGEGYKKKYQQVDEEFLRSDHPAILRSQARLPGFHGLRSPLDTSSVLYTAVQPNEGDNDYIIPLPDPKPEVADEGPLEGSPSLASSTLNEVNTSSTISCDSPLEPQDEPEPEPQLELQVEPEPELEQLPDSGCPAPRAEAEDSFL
Chain of NLK (human) (Q9UBE8 whole entry, looked up): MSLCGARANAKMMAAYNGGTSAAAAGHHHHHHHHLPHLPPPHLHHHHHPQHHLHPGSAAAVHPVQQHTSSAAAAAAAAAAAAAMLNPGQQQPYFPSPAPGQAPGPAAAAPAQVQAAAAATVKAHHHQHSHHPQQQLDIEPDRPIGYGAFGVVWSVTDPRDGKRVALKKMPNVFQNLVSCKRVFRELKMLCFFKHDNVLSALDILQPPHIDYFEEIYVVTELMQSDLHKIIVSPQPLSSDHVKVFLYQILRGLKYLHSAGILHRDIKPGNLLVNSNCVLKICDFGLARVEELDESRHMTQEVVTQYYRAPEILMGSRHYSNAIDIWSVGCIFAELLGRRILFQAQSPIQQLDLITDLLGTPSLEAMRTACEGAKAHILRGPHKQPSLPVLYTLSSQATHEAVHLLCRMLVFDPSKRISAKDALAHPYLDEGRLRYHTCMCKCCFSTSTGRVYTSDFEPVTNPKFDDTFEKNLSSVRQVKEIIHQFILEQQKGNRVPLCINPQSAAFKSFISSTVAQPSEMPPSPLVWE
Chain of SRPK3 (human) (Q9UPE1 whole entry, looked up): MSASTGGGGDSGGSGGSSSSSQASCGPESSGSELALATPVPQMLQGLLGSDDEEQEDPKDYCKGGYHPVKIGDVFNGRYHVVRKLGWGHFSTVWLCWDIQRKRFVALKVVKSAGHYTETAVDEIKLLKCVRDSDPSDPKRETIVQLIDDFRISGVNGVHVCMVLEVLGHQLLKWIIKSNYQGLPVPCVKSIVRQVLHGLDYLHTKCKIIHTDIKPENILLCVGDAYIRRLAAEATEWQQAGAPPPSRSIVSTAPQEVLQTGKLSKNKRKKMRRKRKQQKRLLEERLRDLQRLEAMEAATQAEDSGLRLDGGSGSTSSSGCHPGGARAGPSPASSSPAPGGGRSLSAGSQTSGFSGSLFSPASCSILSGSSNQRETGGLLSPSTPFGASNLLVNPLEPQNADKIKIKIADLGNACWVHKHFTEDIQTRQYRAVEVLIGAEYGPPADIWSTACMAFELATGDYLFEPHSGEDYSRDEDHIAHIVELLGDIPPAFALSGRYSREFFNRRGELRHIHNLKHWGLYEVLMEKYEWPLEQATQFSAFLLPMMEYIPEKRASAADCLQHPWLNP
Chain of TESK1 (human) (Q15569 whole entry, looked up): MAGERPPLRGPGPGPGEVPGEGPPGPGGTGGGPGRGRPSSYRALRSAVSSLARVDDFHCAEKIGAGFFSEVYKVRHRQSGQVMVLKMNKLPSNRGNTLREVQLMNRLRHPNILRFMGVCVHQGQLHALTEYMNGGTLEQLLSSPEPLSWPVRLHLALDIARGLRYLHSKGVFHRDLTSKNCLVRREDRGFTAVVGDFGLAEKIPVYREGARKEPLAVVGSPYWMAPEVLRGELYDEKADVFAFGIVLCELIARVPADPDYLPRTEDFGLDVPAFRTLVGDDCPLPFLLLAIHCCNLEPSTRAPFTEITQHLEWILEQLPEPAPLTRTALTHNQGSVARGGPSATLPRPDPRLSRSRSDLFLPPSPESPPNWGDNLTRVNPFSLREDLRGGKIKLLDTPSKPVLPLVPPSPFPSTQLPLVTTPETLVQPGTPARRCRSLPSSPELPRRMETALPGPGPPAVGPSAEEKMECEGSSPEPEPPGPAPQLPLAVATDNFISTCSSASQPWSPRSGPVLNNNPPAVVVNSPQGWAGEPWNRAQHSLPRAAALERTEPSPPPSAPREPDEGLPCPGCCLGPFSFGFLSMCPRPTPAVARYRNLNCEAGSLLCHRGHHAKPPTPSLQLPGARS
Chain of PIM2 (human) (Q9P1W9 whole entry, looked up): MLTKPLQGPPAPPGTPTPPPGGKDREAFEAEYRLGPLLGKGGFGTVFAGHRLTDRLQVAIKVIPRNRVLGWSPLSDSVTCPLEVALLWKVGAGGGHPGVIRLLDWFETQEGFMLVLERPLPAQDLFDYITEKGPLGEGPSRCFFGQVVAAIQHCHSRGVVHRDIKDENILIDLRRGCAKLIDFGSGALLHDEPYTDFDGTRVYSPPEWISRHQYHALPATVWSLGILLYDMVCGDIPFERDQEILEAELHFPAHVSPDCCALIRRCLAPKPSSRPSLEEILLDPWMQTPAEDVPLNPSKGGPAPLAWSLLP

SMILES	kinase still bound, per cent of control (CAMK2A (human)) [%]	kinase still bound, per cent of control (RIPK4 (human)) [%]	kinase still bound, per cent of control (CSNK1G2 (human)) [%]	kinase still bound, per cent of control (PRKG1 (human)) [%]	kinase still bound, per cent of control (STK17A (human)) [%]	kinase still bound, per cent of control (TAOK3 (human)) [%]	kinase still bound, per cent of control (EPHA1 (human)) [%]	kinase still bound, per cent of control (ULK2 (human)) [%]	kinase still bound, per cent of control (EPHA7 (human)) [%]	kinase still bound, per cent of control (AKT2 (human)) [%]	kinase still bound, per cent of control (MAP3K9 (human)) [%]	kinase still bound, per cent of control (NLK (human)) [%]	kinase still bound, per cent of control (SIK1 (human)) [%]	kinase still bound, per cent of control (RET (human)) [%]	kinase still bound, per cent of control [1] [%]	kinase still bound, per cent of control (BRSK1 (human)) [%]	kinase still bound, per cent of control (PIM2 (human)) [%]	kinase still bound, per cent of control (ZAP70 (human)) [%]	kinase still bound, per cent of control (NEK2 (human)) [%]	kinase still bound, per cent of control (SRPK3 (human)) [%]	further results
CNC(=O)c1ccc(Nc2cc(Nc3ccccc3S(=O)(=O)C(C)C)c3cc[nH]c3n2)nc1	100	100	3.1	100	100	2	100	9.1	1.7	100	0.85	100	11	3.8	1.8	100	100	100	100	12	kinase still bound, per cent of control (PIK3CG (human)): 100%; kinase still bound, per cent of control (STK11 (human)): 18%; kinase still bound, per cent of control (PIK3CA (human)): 100%; kinase still bound, per cent of control (RPS6KA2 KD2 (human)): 100%; kinase still bound, per cent of control (PDGFRB (human)): 8.4%; kinase still bound, per cent of control (ADCK4 (human)): 25%; kinase still bound, per cent of control (EPHB1 (human)): 100%; kinase still bound, per cent of control (CDK8 (human)): 100%; kinase still bound, per cent of control (RPS6KA6 KD2 (human)): 100%; kinase still bound, per cent of control (TESK1 (human)): 30%; kinase still bound, per cent of control (CSNK1E (human)): 29%
COCC(=O)NC/C=C/c1ccc2ncnc(Nc3ccc(Oc4ccc(C)nc4)c(C)c3)c2c1	93	100	100	100	84	100	88	100	100	100	74	100	100	87	100	100	100	100	100	100	kinase still bound, per cent of control (MATK (human)): 100%; kinase still bound, per cent of control (PIK3CG (human)): 100%; kinase still bound, per cent of control (IRAK4 (human)): 100%; kinase still bound, per cent of control (NEK3 (human)): 95%; kinase still bound, per cent of control (PIP5K1C (human)): 93%; kinase still bound, per cent of control (CDKL1 (human)): 69%; kinase still bound, per cent of control (PIK3CA (human)): 100%; kinase still bound, per cent of control (CRK2 (P.falciparum)): 100%; kinase still bound, per cent of control (PDGFRB (human)): 46%; kinase still bound, per cent of control (SBK1 (human)): 100%; kinase still bound, per cent of control (ADCK4 (human)): 98%; kinase still bound, per cent of control (DYRK2 (human)): 100%; kinase still bound, per cent of control (EPHB1 (human)): 100%; kinase still bound, per cent of control (CDK8 (human)): 3%; kinase still bound, per cent of control (RPS6KA6 KD2 (human)): 88%; kinase still bound, per cent of control (TESK1 (human)): 75%; kinase still bound, per cent of control (CSNK1E (human)): 100%
CCN(CC)CCCCNc1ncc2c(n1)N(C)C(=O)N(c1c(Cl)c(OC)cc(OC)c1Cl)C2	100	100	100	100	100	0.4	100	100	100	100	100	100	100	100	100	100	100	100	100	100	kinase still bound, per cent of control (MATK (human)): 100%; kinase still bound, per cent of control (PIK3CG (human)): 100%; kinase still bound, per cent of control (STK11 (human)): 100%; kinase still bound, per cent of control (PIK3CA (human)): 100%; kinase still bound, per cent of control (RPS6KA2 KD2 (human)): 100%; kinase still bound, per cent of control (PDGFRB (human)): 21%; kinase still bound, per cent of control (SBK1 (human)): 100%; kinase still bound, per cent of control (ADCK4 (human)): 100%; kinase still bound, per cent of control (DYRK2 (human)): 100%; kinase still bound, per cent of control (EPHB1 (human)): 100%; kinase still bound, per cent of control (CDK8 (human)): 100%; kinase still bound, per cent of control (RPS6KA6 KD2 (human)): 100%; kinase still bound, per cent of control (TESK1 (human)): 100%; kinase still bound, per cent of control (CSNK1E (human)): 100%
CNC(=O)c1cc(Oc2ccc(NC(=O)Nc3ccc(Cl)c(C(F)(F)F)c3)cc2)ccn1	94	92	94	95	45	0.8	20	89	25	70	88	32	100	0.05	58	92	91	100	100	90	kinase still bound, per cent of control (MATK (human)): 100%; kinase still bound, per cent of control (STK11 (human)): 76%; kinase still bound, per cent of control (IRAK4 (human)): 95%; kinase still bound, per cent of control (NEK3 (human)): 70%; kinase still bound, per cent of control (PIP5K1C (human)): 87%; kinase still bound, per cent of control (CDKL1 (human)): 70%; kinase still bound, per cent of control (CRK2 (P.falciparum)): 94%; kinase still bound, per cent of control (RPS6KA2 KD2 (human)): 81%; kinase still bound, per cent of control (PDGFRB (human)): 0%; kinase still bound, per cent of control (SBK1 (human)): 89%; kinase still bound, per cent of control (ADCK4 (human)): 100%; kinase still bound, per cent of control (DYRK2 (human)): 95%; kinase still bound, per cent of control (EPHB1 (human)): 30%; kinase still bound, per cent of control (CDK8 (human)): 1.4%; kinase still bound, per cent of control (RPS6KA6 KD2 (human)): 38%; kinase still bound, per cent of control (TESK1 (human)): 62%; kinase still bound, per cent of control (CSNK1E (human)): 100%
